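Tested at 5 concentrations; 48 h exposure; 96-well plates; endpoints linearly interpolated, else capped at highest concentration. Abbreviation: GI50, concentration required for 50% inhibition of growth. TGI denotes the concentration required for complete inhibition of growth.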
Columns and labels:
Assay in all cases: inhibition of tumour cell growth, NCI panel, 48 h
A549 NSCLC = system: A549 NSCLC
BT-549 breast = system: BT-549 breast
HT29 colon = system: HT29 colon
NCI-H460 lung = system: NCI-H460 lung
OVCAR-4 ovarian = system: OVCAR-4 ovarian
SK-MEL-5 melanoma = system: SK-MEL-5 melanoma
SK-OV-3 ovarian = system: SK-OV-3 ovarian
SNB-19 CNS = system: SNB-19 CNS
HS 578T breast = system: HS 578T breast
OVCAR-5 ovarian = system: OVCAR-5 ovarian

Row | Compound | GI50 (A549 NSCLC) | TGI (A549 NSCLC) | GI50 (BT-549 breast) | TGI (BT-549 breast) | GI50 (HT29 colon) | TGI (HT29 colon) | GI50 (NCI-H460 lung) | TGI (NCI-H460 lung) | GI50 (OVCAR-4 ovarian) | TGI (OVCAR-4 ovarian) | GI50 (SK-MEL-5 melanoma) | TGI (SK-MEL-5 melanoma) | GI50 (SK-OV-3 ovarian) | TGI (SK-OV-3 ovarian) | GI50 (SNB-19 CNS) | TGI (SNB-19 CNS) | GI50 (HS 578T breast) | TGI (HS 578T breast) | GI50 (OVCAR-5 ovarian) | TGI (OVCAR-5 ovarian)
1 | CN(C)c1ccc(/C=N/NC(N)=S)nc1 | 4.61 µM | > 100 µM | 4.39 µM | > 100 µM | 4.46 µM | > 100 µM | 2.89 µM | 29.3 µM | 4.3 µM | > 100 µM | 2.52 µM | > 100 µM | 4.5 µM | > 100 µM | 5.64 µM | > 100 µM | – | – | – | –
2 | Cc1c(Cn2c(C)nc3c(C(=O)O)cc(N4CCOCC4)cc32)cccc1C(F)(F)F | 54.3 µM | > 100 µM | 25.8 µM | > 100 µM | 57.3 µM | > 100 µM | 40 µM | > 100 µM | 42.4 µM | > 100 µM | 47.1 µM | > 100 µM | 77.5 µM | > 100 µM | > 100 µM | > 100 µM | 50.5 µM | > 100 µM | 81.7 µM | > 100 µM
3 | CSC(=NC(=O)c1ccccc1Cl)SCCSC(=NC(=O)c1ccccc1Cl)SC | – | > 100 µM | – | – | – | > 100 µM | – | > 100 µM | – | > 100 µM | – | > 100 µM | – | – | – | > 100 µM | – | – | – | > 100 µM
4 | COC(=O)/C=C1/SC(=Nc2cccc(Cl)c2)N(CCc2c[nH]c3ccc(O)cc23)C1=O | 2.65 µM | 6.95 µM | 1.24 µM | 3.05 µM | 1.87 µM | 3.57 µM | 2.04 µM | 4.1 µM | 1.4 µM | 4.44 µM | 1.99 µM | 4.19 µM | 2.24 µM | 5.01 µM | 2.57 µM | 6.88 µM | 2.68 µM | 8.99 µM | 1.92 µM | 4.07 µM
5 | CC(Oc1ccc2c(-c3ccc(Cl)cc3)cc(=O)oc2c1)C(=O)O (centres undefined) | – | > 100 µM | – | – | – | > 100 µM | – | > 100 µM | – | > 100 µM | – | > 100 µM | – | > 100 µM | – | > 100 µM | – | – | – | –
6 | OC1CC2CCC(C1)N2CCCN1c2ccccc2Sc2ccc(Cl)cc21 (centres undefined) | – | 7.45 µM | – | 10.7 µM | – | 3.63 µM | – | 3.25 µM | – | 13.6 µM | – | 3.13 µM | – | 11.6 µM | – | 13.5 µM | – | 4.59 µM | – | 8.01 µM
7 | COc1ccc(C(=O)C2CCC(C(=O)O)C2)cc1 (centres undefined) | – | > 100 µM | – | – | – | > 100 µM | – | > 100 µM | – | > 100 µM | – | > 100 µM | – | > 100 µM | – | > 100 µM | – | – | – | > 100 µM
8 | COc1ccc2c(c1)c(-c1nc(-c3cn(C)c4ccncc34)cs1)cn2C | 1.93 µM | 3.99 µM | – | – | 1.43 µM | 3.1 µM | 1.94 µM | 3.68 µM | 2.1 µM | 4.62 µM | 1.52 µM | 2.85 µM | 2.52 µM | 5.12 µM | 2.26 µM | 4.73 µM | – | – | 1.81 µM | 3.53 µM

Source: PubChem BioAssay (NCI)
